Where two headings read alike, the source gives them in different places.
What was measured:
patients with AD = conditions: cited from earlier work
mice = conditions: cited from earlier work
[1] = in vivo; cited from earlier work
K^+ transport = assay: K^+ transport: ^86 Rb uptake by P3 membrane fractions of whole mouse brain; format: biochemical, Swiss mice; conditions: for IC50: ^86 Rb uptake, P3 fraction, 0° C., pH 7, 5 seconds; for K^+ transport inhibition activity relative to amodiaquin (in words): fraction of amodiaquin's activity; for K^+ Transport Relative Potency: relative to amodiaquin = 1; for Concentration inhibiting K^+ transport (selection criterion met): submillimolar concentrations
Experimental: To obtain the data set forth in Table I, K^+ -transport was measured using P3 membrane fractions prepared from whole brains of Swiss mice. […] The resulting supernatant was centrifuged at 17,000 g for 15 minutes, and the supernatant from the latter was centrifuged at 70,000 g for 1 hour to pellet the P3 fraction. The P3 pellet was washed by resuspension in 50 mM Tris-citrate (pH 7.3). After 10 minutes on ice, the suspension was centrifuged at 70,000 g for 10 minutes. This washing procedure was repeated twice using distilled water for the resuspension. […] The suspension (2-3 mg protein/ml) was stabilized on ice for 1 hour prior to use. Uptake of ^86 Rb (radioactive) was used to assess the K^+ -transport of the P3 articles. Many published experiments have shown the ^86 Rb, with a half-life 36 times longer than ^42 K, is a suitable tracer for K. Rb permeates neuronal K channels as well as does K itself.
After filtration of the samples, the filters were washed rapidly three times with 10^-3 M triethanolamine containing 0.1M RbCl (non-radioactive) and counted in ACS liquid scintillation cocktail (Amersham). In calculating the results, the uptake found in the presence of 0.1M non-radioactive RbCl was subtracted from that found in the presence of various concentrations of the test substances in the presence of 10^-6 M ^86 RbCl alone. […] Between 0.2 and 0.5 mg/ml usually were employed. The results were normalized by calculating them as percentages of the uptake observed with 10^-6 M ^86 RbCl alone.

Acetylcholinesterase = target: T1, Acetylcholinesterase (Electrophorus electricus, UniProt O42275); assay: Acetylcholinesterase activity, acetylthiocholine substrate, colorimetric (Ellman); format: biochemical, electric eel; conditions: for Cholinesterase inhibitory potency relative to amodiaquin (in words): fraction of amodiaquin's inhibitory potency; for Acetylcholinesterase Activity Rank Order: rank among the five substances; for Acetylcholinesterase Activity Relative Potency: relative to amodiaquin = 1
T1 construct: The enzyme employed was prepared from the electric organ of the electric eel; from tissue; host or cells: electric organ of the electric eel
T1 sequence (O42275 24-633): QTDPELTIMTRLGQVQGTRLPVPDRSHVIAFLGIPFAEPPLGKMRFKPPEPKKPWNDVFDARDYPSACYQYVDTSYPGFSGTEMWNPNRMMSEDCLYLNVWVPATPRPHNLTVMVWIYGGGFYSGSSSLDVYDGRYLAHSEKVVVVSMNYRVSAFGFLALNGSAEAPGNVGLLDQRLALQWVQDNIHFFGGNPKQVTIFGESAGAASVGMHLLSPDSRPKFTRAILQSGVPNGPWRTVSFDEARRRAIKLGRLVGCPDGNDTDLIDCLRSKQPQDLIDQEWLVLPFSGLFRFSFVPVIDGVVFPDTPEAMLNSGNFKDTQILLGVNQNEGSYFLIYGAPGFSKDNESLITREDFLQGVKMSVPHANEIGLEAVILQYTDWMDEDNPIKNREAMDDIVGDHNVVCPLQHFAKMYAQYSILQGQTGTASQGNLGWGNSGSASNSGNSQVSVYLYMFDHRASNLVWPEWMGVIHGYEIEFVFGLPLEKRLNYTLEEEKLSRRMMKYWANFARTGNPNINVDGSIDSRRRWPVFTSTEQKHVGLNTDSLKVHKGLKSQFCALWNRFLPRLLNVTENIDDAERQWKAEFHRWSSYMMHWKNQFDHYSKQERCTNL
Experimental: Cholinesterase activity reported in Table I was measured by a standard procedure. The enzyme employed was prepared from the electric organ of the electric eel. It is known to have the same properties as the enzyme of mammalian nervous tissue. Acetylthiocholine was used as substrate.
Inhibitory potency of substances was determined by measuring enzyme activity in the absence and presence of varying concentrations of the test substances.

cholinesterase = conditions: cited from earlier work

For `Nc1ccncc1` [4AP, 4-aminopyridine], the “Effect on symptoms of AD” value (patients with AD) is listed as “may improve symptoms in some patients with AD”, the “Effect on behavioral deficit produced by anoxia” value (mice) is listed as “partially reversed the behavioral deficit” and the “Effect on general anesthesia” value [1] is listed as “rapidly overcomes the effects of general anesthesia”.

Work on `Nc1c2ccccc2nc2ccccc12` [9-aminoacridine] yielded an IC50 (K^+ transport) of 70 µM.

In the case of `CCN(CC)Cc1cc(Nc2ccnc3cc(Cl)ccc23)ccc1O` [Amodiaquin, amodiaquin], the IC50 (K^+ transport) is given as 40 µM, the IC50 (Acetylcholinesterase) is given as 0.004 µM and the Cholinesterase inhibition (cholinesterase) is given as “effective cholinesterase inhibitor”.

With `CCN(CC)CCCC(C)Nc1ccnc2cc(Cl)ccc12` (centres unmarked) [Chloroquine, chloroquine] the IC50 (K^+ transport) was 600 µM, the “K^+ transport inhibition activity relative to amodiaquin (in words)” value (K^+ transport) was “approximately one-twentieth” and the “K^+ Transport Relative Potency” value (K^+ transport) was 0.067. The “Concentration inhibiting K^+ transport (selection criterion met)” value (K^+ transport) was ≤ 10^-3 M, the IC50 (Acetylcholinesterase; electric eel enzyme, acetylthiocholine substrate, read-out: Acetylcholinesterase Activity IC50) was 4 µM and the “Cholinesterase inhibitory potency relative to amodiaquin (in words)” value (Acetylcholinesterase) was “less than one-thousandth”. The “Acetylcholinesterase Activity Rank Order” value (Acetylcholinesterase) was 5(4) and the “Acetylcholinesterase Activity Relative Potency” value (Acetylcholinesterase) was 0.001.

In the case of `CCN(CC)CCCC(C)Nc1c2ccc(Cl)cc2nc2ccc(OC)cc12` (centres unmarked) [Quinacrine, quinacrine], the IC50 (K^+ transport) is reported as 90 µM, the “K^+ transport inhibition activity relative to amodiaquin (in words)” value (K^+ transport) is reported as “approximately one-half” and the “K^+ Transport Relative Potency” value (K^+ transport) is reported as 0.44. The “Concentration inhibiting K^+ transport (selection criterion met)” value (K^+ transport) was ≤ 10^-3 M, the IC50 (Acetylcholinesterase) was 4 µM and the “Cholinesterase inhibitory potency relative to amodiaquin (in words)” value (Acetylcholinesterase) was “less than one-thousandth”. The “Acetylcholinesterase Activity Rank Order” value (Acetylcholinesterase) was 4(5) and the “Acetylcholinesterase Activity Relative Potency” value (Acetylcholinesterase) was 0.001.
